Results reported in patent US20110034335A1, “Treatment of Ornamental Plants” (priority 2009, published 2011).

How the values were obtained:
Type in all cases: in vivo
nursery plants = experiment: Nursery plants, reassessment after 4 weeks in greenhouse (Example 10); details: 50 mg/L of 1-MCP; after 4 weeks in a greenhouse
Protocol: A range of nursery plants that often show quality problems during shipping were chosen including Datura (tropical), Mini-rose, Delphinium (sun perennial), Verbena (sun perennial), Asclepias (sun perennial), Delosperma (groundcover), Myosotis (shade perennial) and Primula (shade perennial).
Spray liquid had 50 mg/L of 1-MCP. Sprayed and unsprayed control plants, all of which were blooming, were packed in boxes according to standard procedures and shipped under commercial conditions. After 5 days plants were unpacked and given a quality rating, from 0 (poor) to 2 (good). Results were as follows:
After the above observations, the plants were placed in a greenhouse for 4 weeks and assessed again.

‘Magenta’ Impatiens = experiment: Spray with 1-MCP solutions with Silwet L-77, ethylene challenge (Example 5); details: for Wilt and/or Abscission (%): surf. 0.25 ml/L
Protocol: (§1) Spray applications were made using (unless otherwise noted) AFxRD-038 powder containing 3.8% active ingredient, i.e. 1-MCP, and also containing dextrose, alpha-cyclodextrin, and amino acid salt. Rates listed are for active ingredient e.g. 5 mg active ingredient per liter. Sprayed liquid contained (unless otherwise noted) AFxRD-038 powder added to water. AFxRD-038 powder was obtained from AgroFresh Inc. The water used (unless otherwise noted) was tap water. Applications were done in 500 ml spray bottles at rates typical for growth regulators applications in the ornamental industry i.e., 200 ml per square meter. Spraying was done within 5-15 minutes of mixing the formulation. Plants were allowed to dry for 1-4 hours before being challenged with ethylene (2 ppm for about 16 hours at ambient temperatures).
Surfactant Silwet™ L-77 (called “surf” below) was sometimes included to evaluate the effect of surfactant on efficacy. Silwet™ L-77 was used in the form of a pure liquid. The amounts shown below as “ml/L” refer to milliliters of pure Silwet™ L-77 per liter of liquid CP composition.

[1] = system: racks of flowering plants; experiment: Racks of flowering plants, overall comparison sprayed vs control (Example 8); details: 25 mg/L; every variety
Protocol: as §1
Racks of flowers were sprayed with spray liquid containing 25 mg/L at rate of 200 ml/square meter. Racks were then placed into a full enclosed truck (length 7.3 meter) for 14 hours. Plants were then challenged with ethylene and evaluated 3 and 7 days later, using a rating scale from 0 (poor) to 2 (good). […] Results were as follows:
In no case was the sprayed plant worse to a statistically significant degree than the corresponding control plant. In most cases the sprayed plant was better than the corresponding control plant.

For `CC1=CC1` [1-MCP, 1-methylcyclopropene], the “assessment of sprayed plants vs control” value (nursery plants) was “typically larger, greener, and healthier”, the “Wilt and/or Abscission (%)” value (‘Magenta’ Impatiens; 1-MCP 5 mg/L) was 3% and the “Wilt and/or Abscission (%)” value (‘Magenta’ Impatiens; 1-MCP 10 mg/L) was 2%. The “Wilt and/or Abscission (%)” value (‘Magenta’ Impatiens; 1-MCP 25 mg/L) was 5%, the “Wilt and/or Abscission (%)” value (‘Magenta’ Impatiens; 1-MCP 50 mg/L) was 0% and the phytotoxicity (‘Magenta’ Impatiens; even at the highest rates with Silwet L-77) was “No phytotoxicity was observed”. The “sprayed plant compared with control plant” value [1] was “better than the control plant at day 3 or at day 7 or at both”.
